According to patent US20200282009A1, “METHODS OF TREATING DISEASES ASSOCIATED WITH VASCULAR SMOOTH MUSCLE CELL PROLIFERATION” (BioLineRx Ltd., priority 2017, published 2020):
[ ]: non-standard residue; d: D form. The star is where a group is joined. Benzoyl(4-F) = O=C(c1ccc(F)cc1)*; Cit = NC(=O)NCCC[C@H](N)C(=O)O

What was measured:
[1] = tested on: miR-15a, miR-16-1, BCL-2, CCND1, c-myc in Shy-SY5Y cells; test: qPCR of treated cells in-vitro; format: cell-based, human; conditions: 20 μM, 24 hours
Procedure: (§1) Total RNA from various cell lines and mouse tissues was isolated using Trizol reagent (Invitrogen) according to the manufacture's protocol, followed by DNaseI treatment using the DNaseI Kit where needed (Ambion). The concentrations were measured by Nanodrop (ND spectrophotometer) and the integrity was analyzed by gel electrophoreses on 1% agarose gel.
(§2) cDNA was synthesized from 0.5-1 μg total RNA using the Quanta Biosciences qScript™ cDNA Synthesis Kit (95047-100) for mRNA analysis, and using the qScript™ microRNA cDNA Synthesis Kit (95107-100) for miRNAs analysis. Quantiative PCR (qPCR) of miRNAs and mRNA was performed using the CFX384, C1000 touch thermal cycler (Bio-Rad) and a SYBR Green PCR Kit: Quanta Cat. #84018 and #84071, respectively. The fold expression and statistical significance were calculated using the 2-ΔΔ Ct method. All experiments were performed in triplicate.

[2] = tested on: miR-15a, miR-16-1, BCL-2, CCND1, c-myc in SK-N-BE(2) cells; test: qPCR of treated cells in-vitro; format: cell-based, human; conditions: 20 μM, 24 hours
Procedure: as §1, §2

Shy-SY5Y cells = test: Soft agar colony assay; format: cell-based, human; conditions: BL-8040 20 μM or anti-CXCR4 1 μg/ml, 14 days
Procedure: (§3) An agar base layer was prepared as follows: 45 mL RPMI plus 12% FCS was mixed with 15 mL RPMI 32 plus 12% FCS and 15 mL 2.5% agar in double-distilled water. The tumor cells were suspended in RPMI plus 10% FCS. Cell suspension was mixed in a ratio of 1:3 with the agar base solution. This mixture was then plated on top of a preformed solid agar base. CXCL12 (100 ng/mL) or BL-8040 (20 μM) or anti-CXCR4 (1 μg/ml) were added to the mixture. Fourteen days later, the number of colonies was counted in 10 different fields.

SK-N-BE(2) cells = test: Soft agar colony assay; format: cell-based, human; conditions: BL-8040 20 μM or anti-CXCR4 1 μg/ml, 14 days
Procedure: as §3

CXCR4 receptor = CXCR4 receptor (Homo sapiens, UniProt P61073); conditions: Peled et al. 2012; cited from earlier work
[3] = tested on: miR-15a, miR-16-1, BCL-2, CCND1; test: qPCR of RNA from xenograft tumors; format: in vivo, NSG mice; conditions: treated vs un-treated tumors
Procedure: as §1, §2
(§4) Human SK-N-BE(2) cells were orthotopically injected into the left adrenal gland of 6-8 weeks old NSG mice. A 27-gauge needle was introduced through the left adrenal fat pad and 5×10∧5 cells/20 μl PBS were inoculated to the adrenal gland. NSG mice were maintained under defined flora conditions at the Hebrew University Pathogen-Free Animal Facility. Tumor growth and volume were monitored bi-weekly by using T2-weighted MRI until tumors reached the ethical limit volume and mice were randomized to drug-treated or control mice. Mice in the treated group were subjected to 2 treatment protocols. In the first treatment protocol BL-8040 (400 μg) was injected daily, starting three days following inoculation, and was continued for 35 days. In the second treatment protocol mice were monitored for 21 days. As of day 7, mice were treated with a daily injection of BL-8040 (400 μg) for 14 consecutive days.

miR-15a, DLEU2 = test: Gene expression array of xenograft tumors; format: in vivo, NSG mice; conditions: treated vs un-treated tumors
Excerpt: RNA was isolated from tumors and subjected to gene expression profiling using GeneChip human Gene 1.0 ST Array (Affymetrix). The gene expression values were extracted using the Partek Genomics Suite 6.6 software and, after thresholding and filtering procedures, were submitted to fold change and cluster analyses (Gene Expression Omnibus [GEO] GSE94426).
as §4

Chain of CXCR4 receptor (P61073 whole entry): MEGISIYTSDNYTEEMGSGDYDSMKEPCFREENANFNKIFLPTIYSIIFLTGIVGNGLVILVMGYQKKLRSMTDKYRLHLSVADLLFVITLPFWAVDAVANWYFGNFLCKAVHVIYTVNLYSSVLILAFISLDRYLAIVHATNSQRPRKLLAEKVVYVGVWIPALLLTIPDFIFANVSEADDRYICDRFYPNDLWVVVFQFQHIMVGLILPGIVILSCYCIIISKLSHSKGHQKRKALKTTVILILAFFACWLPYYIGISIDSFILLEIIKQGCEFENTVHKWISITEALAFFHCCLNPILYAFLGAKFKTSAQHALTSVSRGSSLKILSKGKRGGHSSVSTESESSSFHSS

For “4F-benzoyl-Arg-Arg-Nal-Cys-Tyr-Cit-Lys-DLys-Pro-Tyr-Arg-Cit-Cys-Arg-NH2 ({Benzoyl(4-F)}-RR[Nal]CY[Cit]K[dK]PYR[Cit]CR-NH2; not fully specified; printed as 4F-benzoyl-Arg-Arg-Nal-Cys-Tyr-Cit-Lys-DLys-Pro-Tyr-Arg-Cit-Cys-Arg-NH2; cysteine pairing not given here) [BL-8040]”, the “BCL-2 mRNA (qPCR)” value [1] was “reduced”, the “CCND1 mRNA (qPCR)” value [1] was “reduced only in the Shy-SY5Y cells” and the “c-myc mRNA (qPCR)” value [1] was “reduced significantly”. For the same substance, the “miR-15a level (qPCR)” value [1] was “significant increase”, the “miR-16-1 level (qPCR)” value [1] was “not miR-16-1” and the “BCL-2 mRNA (qPCR)” value [2] was “reduced”. For the same substance, the “CCND1 mRNA (qPCR)” value [2] was “reduced only in the Shy-SY5Y cells”, the “c-myc mRNA (qPCR)” value [2] was “reduced significantly” and the “miR-15a level (qPCR)” value [2] was “significant increase”. The “miR-16-1 level (qPCR)” value [2] was “not miR-16-1”, the colony formation (Shy-SY5Y cells) was “reduces colony formation” and the colony formation (SK-N-BE(2) cells) was “reduces colony formation”. For the same substance, the “affinity of binding to the CXCR4 receptor” value (CXCR4 receptor) was “high affinity”, the receptor occupancy (CXCR4 receptor) was “long receptor occupancy” and the “BCL-2 mRNA in tumors (qPCR)” value [3] was “significantly downregulated”. For the same substance, the “CCND1 mRNA in tumors (qPCR)” value [3] was “significantly downregulated”, the “miR-15a level in tumors (qPCR)” value ([3]; n=9) was “significantly elevated” and the “miR-16-1 level in tumors (qPCR)” value ([3]; n=9) was “significantly elevated”. The “expression of miR-15a and its parent gene DLEU2 (gene chip array)” value (miR-15a, DLEU2) was “increased expression”.
